In this experiment the target is CDK7/CycH/MNAT1 (Homo sapiens (Human), UniProt P50613). Nature of the experiment: Biochemical Assay for CDK7 (TR-FRET kinase assay). Conditions: 60 min pre-incubation with kinase, 1 mM ATP; for inhibition at 10 µM / % inhibition @ 10 μM: 10 μM compound. Here is the method: Biochemical Assay for CDK7:
The ability of compounds to inhibit CDK7 kinase activity was tested in a TR-FRET assay using 5 nM of CDK7/CycH/MNAT1 obtained from Invitrogen, USA. Test compounds were pre-incubated with the kinase at room temperature for 60 min. After the incubation, substrate mix [100 nM Ultra-light MBP (Perkin Elmer, USA) and 1 mM ATP (Sigma)] was added. The above reaction was stopped by the addition of 40 mM EDTA after 60 minutes of kinase reaction. 1 nM Eu-labelled antiphospho-MBP antibody [Perkin Elmer, USA] was added, mixed well and the fluorescence emission at 615 nm and 665 nm [excitation at 340 nm] was measured. The final DMSO concentration in the assay was 1%. For IC50 determination, appropriate concentrations were made by ⅓^rd serial dilutions of 10 mM DMSO stock solution of test compound. All the fluorescence measurements were made in a Victor 3 Multilabel Counter [Perkin Elmer, USA]. The IC50 was determined by fitting the dose response data to sigmoidal curve fitting equation using GraphPad Prism software V5. To identify compounds that inhibit CDK7 irreversibly, time depended inhibition studies were carried by pre-incubating compound with the enzyme at three time points (20, 60 and 180 min) and carrying out assay as described above.
The compounds were screened by the above mentioned assay procedure.

The results in this text go back to patent publication US11174232B2, “Substituted heterocyclyl derivatives as CDK inhibitors” (Aurigene Discovery Technologies Limited, priority 2015, dated 2021).

CDK7/CycH/MNAT1, sequence (P50613 whole entry): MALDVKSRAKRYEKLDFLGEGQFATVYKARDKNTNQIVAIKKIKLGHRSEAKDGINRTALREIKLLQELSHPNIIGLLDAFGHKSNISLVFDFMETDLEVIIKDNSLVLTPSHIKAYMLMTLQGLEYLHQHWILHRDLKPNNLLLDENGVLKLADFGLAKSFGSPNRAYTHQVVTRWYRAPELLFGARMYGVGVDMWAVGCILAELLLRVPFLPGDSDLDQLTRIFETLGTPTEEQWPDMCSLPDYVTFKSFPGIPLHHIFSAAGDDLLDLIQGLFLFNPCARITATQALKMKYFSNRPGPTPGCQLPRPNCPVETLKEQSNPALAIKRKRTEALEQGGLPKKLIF
CDK7/CycH/MNAT1, sequence (P51946 whole entry partner): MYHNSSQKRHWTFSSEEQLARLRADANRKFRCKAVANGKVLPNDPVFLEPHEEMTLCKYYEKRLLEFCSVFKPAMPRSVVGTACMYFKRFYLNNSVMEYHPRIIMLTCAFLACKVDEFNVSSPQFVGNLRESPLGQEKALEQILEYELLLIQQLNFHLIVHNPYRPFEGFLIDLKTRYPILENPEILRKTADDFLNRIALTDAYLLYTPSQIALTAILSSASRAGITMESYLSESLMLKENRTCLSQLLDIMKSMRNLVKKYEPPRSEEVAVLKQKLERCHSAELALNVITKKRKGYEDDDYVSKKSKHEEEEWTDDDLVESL
CDK7/CycH/MNAT1, sequence (P51948 whole entry partner): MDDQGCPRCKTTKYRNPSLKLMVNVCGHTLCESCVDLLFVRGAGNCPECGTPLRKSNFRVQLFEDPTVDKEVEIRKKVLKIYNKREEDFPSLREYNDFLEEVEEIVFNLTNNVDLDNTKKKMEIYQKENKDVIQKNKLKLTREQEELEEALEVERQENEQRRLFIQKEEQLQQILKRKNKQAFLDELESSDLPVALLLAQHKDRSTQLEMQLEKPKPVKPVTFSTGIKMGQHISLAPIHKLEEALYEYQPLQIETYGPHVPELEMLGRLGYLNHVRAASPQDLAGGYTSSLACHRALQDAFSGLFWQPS

For orientation: inhibition means the relative decrease from the control value, in per cent. Read a high inhibition as a response far below the control. By IC50 is commonly meant the concentration at which inhibition is half-maximal. As for `CCC(C(=O)Nc1cc(C2CC2)[nH]n1)c1cccc(-c2ccc(NC(=O)/C=C/CN(C)C)cc2)c1` (stereo not drawn) [Compound 13, (E)-N-(3′-(1-((5-cyclopropyl-1H-pyrazol-3-yl)amino)-1-oxobutan-2-yl)-[1,1′-biphenyl]-4-yl)-4-(dimethylamino)but-2-enamide], testing at 10 µM gave an inhibition of 97% and the 50% inhibitory concentration (IC50) fell in the range of 25 to 100 nM.

In turn, `O=C(/C=C/CN1CCCC1)Nc1ccc(-c2cccc(C3(C(=O)Nc4cc(C5CC5)[nH]n4)CC3)c2)cn1` [Compound 94, (E)-N-(5-cyclopropyl-1H-pyrazol-3-yl)-1-(3-(6-(4-(pyrrolidin-1-yl)but-2-enamido)pyridin-3-yl)phenyl)cyclopropane-1-carboxamide] returned an inhibition at 10 µM of 85% and an IC50 of over 100 nM.

For `C=CC(=O)Nc1ccc(-c2cccc(C(C)C(=O)Nc3cc(CC)[nH]n3)c2)cc1` (stereo not drawn) [Compound 87, N-(3′-(1-((5-ethyl-1H-pyrazol-3-yl)amino)-1-oxopropan-2-yl)-[1,1′-biphenyl]-4-yl)acrylamide], the inhibition at 10 µM is 89% and the IC50 was over 100 nM.

In turn, `CCC(C(=O)Nc1cc(C2CC2)[nH]n1)c1cccc(-c2ccc(NC(=O)/C=C/CN(C)C)c(F)c2)c1` (stereo not drawn) [Compound 31, (E)-N-(3′-(1-((5-cyclopropyl-1H-pyrazol-3-yl)amino)-1-oxobutan-2-yl)-3-fluoro-[1,1′-biphenyl]-4-yl)-4-(dimethylamino)but-2-enamide] registered an inhibition at 10 µM of 100% and an IC50 of under 25 nM.

In turn, `CC(C(=O)Nc1cc(C2CC2)[nH]n1)c1cccc(-c2ccc(NC(=O)/C=C/CN3CC[C@H](F)C3)nc2)c1` (stereo partly drawn) [Compound 46, (E)-N-(5-(3-(1-((5-cyclopropyl-1H-pyrazol-3-yl)amino)-1-oxopropan-2-yl)phenyl)pyridin-2-yl)-4-((S)-3-fluoropyrrolidin-1-yl)but-2-enamide] registered an inhibition at 10 µM of 95% and a 50% inhibitory concentration (IC50) of under 25 nM.

Consider `CC(C(=O)Nc1cc(C2CC2)[nH]n1)c1cccc(-c2ccc(NC(=O)/C=C/CN3CCOCC3)cn2)c1` (stereo not drawn) [Compound 35, (E)-N-(6-(3-(1-((5-cyclopropyl-1H-pyrazol-3-yl)amino)-1-oxopropan-2-yl)phenyl)pyridin-3-yl)-4-morpholinobut-2-enamide], for which 10 µM produced 86% inhibition and the IC50 is over 100 nM.

Consider `CC(C(=O)Nc1cc(C2CC2)[nH]n1)c1cccc(-c2cccc(NC(=O)/C=C/CN3CCOCC3)c2)c1` (stereo not drawn) [Compound 61, (E)-N-(3′-(1-((5-cyclopropyl-1H-pyrazol-3-yl)amino)-1-oxopropan-2-yl)-[1,1′-biphenyl]-3-yl)-4-morpholinobut-2-enamide], for which 10 µM produced 92% inhibition and the half-inhibitory concentration (IC50) is over 100 nM.

`CC(C(=O)Nc1cc(C2CC2)[nH]n1)c1cccc(-c2ccc(NC(=O)/C=C/CN3CCCC3)nc2)c1` (single isomer, unassigned) [Compound 53, (E)-N-(5-(3-(1-((5-cyclopropyl-1H-pyrazol-3-yl)amino)-1-oxopropan-2-yl)-phenyl)pyridin-2-yl)-4-(pyrrolidin-1-yl)but-2-enamide]: the “% inhibition @ 10 μM” value amounted to 100% and the 50% inhibitory concentration (IC50) is under 25 nM.

For the molecule `CC(C(=O)Nc1cc(C2CC2)[nH]n1)c1cccc(-c2ccc(NC(=O)/C=C/CN3CCCC3)nc2)c1` (stereo not drawn) [Compound 52, (E)-N-(5-(3-(1-((5-cyclopropyl-1H-pyrazol-3-yl)amino)-1-oxopropan-2-yl)phenyl)pyridin-2-yl)-4-(pyrrolidin-1-yl)but-2-enamide], the inhibition at 10 µM came out at 91% and the 50% inhibitory concentration (IC50) was under 25 nM.

Turning to `C=CC(=O)N1CCc2cc(-c3cccc(C(C)C(=O)Nc4cc(C5CC5)[nH]n4)c3)ccc21` (stereo not drawn) [Compound 76, 2-(3-(1-acryloylindolin-5-yl)phenyl)-N-(5-cyclopropyl-1H-pyrazol-3-yl)propanamide], the inhibition at 10 µM amounted to 98% and the IC50 is under 25 nM.

On to `C=CC(=O)Nc1ccc(-c2cccc(C(C)C(=O)Nc3cc(C4CC4)[nH]n3)c2)cc1C` (stereo not drawn) [Compound 66, N-(3′-(1-((5-cyclopropyl-1H-pyrazol-3-yl)amino)-1-oxopropan-2-yl)-3-methyl-[1,1′-biphenyl]-4-yl)acrylamide], for which testing at 10 µM gave an inhibition of 88% and the IC50 is over 100 nM.

In turn, `C=CC(=O)Nc1ccc(-c2cccc(C(C)C(=O)Nc3cc(C4CC4)[nH]n3)c2)c(OC)c1` (stereo not drawn) [Compound 73, N-(3′-(1-((5-cyclopropyl-1H-pyrazol-3-yl)amino)-1-oxopropan-2-yl)-2-methoxy-[1,1′-biphenyl]-4-yl)acrylamide] displayed an inhibition at 10 µM of 91% and an IC50 of over 100 nM.

For the molecule `CC(C(=O)Nc1cc(C2CC2)[nH]n1)c1cccc(-c2ccc(NC(=O)/C=C/CN3CCOCC3)nc2)c1` (single isomer, unassigned) [Compound 11, (E)-N-(5-(3-(1-((5-cyclopropyl-1H-pyrazol-3-yl)amino)-1-oxopropan-2-yl)phenyl)pyridin-2-yl)-4-morpholinobut-2-enamide], the “% inhibition @ 10 μM” value worked out at 75% and the half-inhibitory concentration (IC50) was over 100 nM.

For `CCN(CC)C/C=C/C(=O)Nc1ccc(-c2cccc(C(C)C(=O)Nc3cc(C4CC4)[nH]n3)c2)cn1` (stereo not drawn) [Compound 55, (E)-N-(5-(3-(1-((5-cyclopropyl-1H-pyrazol-3-yl)amino)-1-oxopropan-2-yl)phenyl)pyridin-2-yl)-4-(diethylamino)but-2-enamide], the inhibition at 10 µM is 95% and the IC50 is under 25 nM.

`C=CC(=O)Nc1ccc(-c2cccc(C(C)C(=O)Nc3cc(C4CC4)[nH]n3)c2)c(C)c1` (stereo not drawn) [Compound 75, N-(3′-(1-((5-cyclopropyl-1H-pyrazol-3-yl)amino)-1-oxopropan-2-yl)-2-methyl-[1,1′-biphenyl]-4-yl)acrylamide] registered an inhibition at 10 µM of 78% and an IC50 of over 100 nM.

`CC(C(=O)Nc1cc(C2CC2)[nH]n1)c1cccc(-c2ccc(NC(=O)/C=C/CN3CCCC3)c(F)c2)c1` (stereo not drawn) [Compound 33, (E)-N-(3′-(1-((5-cyclopropyl-1H-pyrazol-3-yl)amino)-1-oxopropan-2-yl)-3-fluoro-[1,1′-biphenyl]-4-yl)-4-(pyrrolidin-1-yl)but-2-enamide] gave an inhibition at 10 µM of 97% and an IC50 of 25 to 100 nM.

Molecule `CN(C)C/C=C/C(=O)Nc1ccc(-c2cccc(CC(=O)Nc3cc(C4CC4)[nH]n3)c2)cc1` [Compound 7, (E)-N-(3′-(2-((5-cyclopropyl-1H-pyrazol-3-yl)amino)-2-oxoethyl)-[1,1′-biphenyl]-4-yl)-4-(dimethylamino)but-2-enamide] had an inhibition at 10 µM of 84% and an IC50 of over 100 nM.

In the case of `COC[C@@H]1CCCN1C/C=C/C(=O)Nc1ccc(-c2cccc(C(C)C(=O)Nc3cc(C4CC4)[nH]n3)c2)cn1` (stereo partly drawn) [Compound 70, (E)-N-(5-(3-(1-((5-cyclopropyl-1H-pyrazol-3-yl)amino)-1-oxopropan-2-yl)phenyl)pyridin-2-yl)-4-((S)-2-(methoxymethyl)pyrrolidin-1-yl)but-2-enamide], the inhibition at 10 µM was found to be 81% and the concentration for half-maximal inhibition (IC50) fell in the range of 25 to 100 nM.

Take `COC/C=C/C(=O)Nc1ccc(-c2cccc(C(C)C(=O)Nc3cc(C4CC4)[nH]n3)c2)cn1` (stereo not drawn) [Compound 41, (E)-N-(5-(3-(1-((5-cyclopropyl-1H-pyrazol-3-yl)amino)-1-oxopropan-2-yl)phenyl)pyridin-2-yl)-4-methoxybut-2-enamide]: 10 µM produced 90% inhibition and the concentration for half-maximal inhibition (IC50) is over 100 nM.

`CC(C(=O)Nc1cc(C2CC2)[nH]n1)c1cccc(-c2ccc(NC(=O)/C=C/CN3CCCC(F)C3)nc2)c1` (stereo not drawn) [Compound 57, (E)-N-(5-(3-(1-((5-cyclopropyl-1H-pyrazol-3-yl)amino)-1-oxopropan-2-yl)phenyl)pyridin-2-yl)-4-(3-fluoropiperidin-1-yl)but-2-enamide] registered an inhibition at 10 µM of 98% and a half-inhibitory concentration (IC50) of under 25 nM.

`CC(C)C(C(=O)Nc1cc(C2CC2)[nH]n1)c1cccc(-c2ccc(NC(=O)/C=C/CN(C)C)nc2)c1` (stereo not drawn) [Compound 56, (E)-N-(5-(3-(1-((5-cyclopropyl-1H-pyrazol-3-yl)amino)-3-methyl-1-oxobutan-2-yl)phenyl)pyridin-2-yl)-4-(dimethylamino)but-2-enamide]: testing at 10 µM gave an inhibition of 96% and the IC50 is under 25 nM.

In the case of `C=CC(=O)Nc1ccc(-c2cccc(C(C)C(=O)Nc3n[nH]c4ccccc34)c2)cc1` (stereo not drawn) [Compound 90, N-(3′-(1-((1H-indazol-3-yl)amino)-1-oxopropan-2-yl)-[1,1′-biphenyl]-4-yl)acrylamide], testing at 10 µM gave an inhibition of 83% and the half-inhibitory concentration (IC50) is over 100 nM.

`C=CC(=O)Nc1c(C)cc(-c2cccc(C(C)C(=O)Nc3cc(C4CC4)[nH]n3)c2)cc1C` (stereo not drawn) [Compound 67, N-(3′-(1-((5-cyclopropyl-1H-pyrazol-3-yl)amino)-1-oxopropan-2-yl)-3,5-dimethyl-[1,1′-biphenyl]-4-yl)acrylamide] displayed an inhibition at 10 µM of 79% and a concentration for half-maximal inhibition (IC50) of over 100 nM.

Molecule `CC(C(=O)Nc1cc(C2CC2)[nH]n1)c1cccc(-c2ccc(NC(=O)/C=C/CN3CCCCC3)cn2)c1` (stereo not drawn) [Compound 39, (E)-N-(6-(3-(1-((5-cyclopropyl-1H-pyrazol-3-yl)amino)-1-oxopropan-2-yl)phenyl)pyridin-3-yl)-4-(piperidin-1-yl)but-2-enamide] registered an inhibition at 10 µM of 84% and an IC50 of over 100 nM.
